Source: paper PMC9743148 (Annals of oncology : official journal of the European …, 2020)

Test system: patients with advanced solid tumors
Experiment: Treatment-emergent adverse events
Assay type: in vivo, human
[1] = Combined t.i.w. cohorts (n = 42)

**Q.** For `C=CC(=O)N1CC[C@H](n2nc(C#Cc3cc(OC)cc(OC)c3)c3c(N)ncnc32)C1` [futibatinib], which “Dry mouth TEAE, Grade 3” value (Combined q.d. cohorts (n = 44)) is on record?
**A.** 0 (0) n (%)

**Q.** What about the “Dry mouth TEAE, Grade 4” value (Combined q.d. cohorts (n = 44)) of the same compound?
**A.** 0 (0) n (%)

**Q.** What about the “Dry skin TEAE, Any grade” value (Combined q.d. cohorts (n = 44)) of the same compound?
**A.** 6 (14) n (%)

**Q.** What about the “Dry skin TEAE, Grade 1” value (Combined q.d. cohorts (n = 44)) of the same compound?
**A.** 6 (14) n (%)

**Q.** What about the “Dry skin TEAE, Grade 2” value (Combined q.d. cohorts (n = 44)) of the same compound?
**A.** 0 (0) n (%)

**Q.** What about the “Dry skin TEAE, Grade 3” value (Combined q.d. cohorts (n = 44)) of the same compound?
**A.** 0 (0) n (%)

**Q.** And the “Dry skin TEAE, Grade 4” value (Combined q.d. cohorts (n = 44))?
**A.** 0 (0) n (%)

**Q.** And the “Fatigue TEAE, Any grade” value (Combined q.d. cohorts (n = 44))?
**A.** 7 (16) n (%)

**Q.** What about the “Fatigue TEAE, Grade 1” value (Combined q.d. cohorts (n = 44)) of the same compound?
**A.** 3 (7) n (%)

**Q.** What about the “Fatigue TEAE, Grade 2” value (Combined q.d. cohorts (n = 44)) of the same compound?
**A.** 3 (7) n (%)

**Q.** And the “Fatigue TEAE, Grade 3” value (Combined q.d. cohorts (n = 44))?
**A.** 1 (2) n (%)

**Q.** What about the “Fatigue TEAE, Grade 4” value (Combined q.d. cohorts (n = 44)) of the same compound?
**A.** 0 (0) n (%)

**Q.** And the “Headache TEAE, Any grade” value (Combined q.d. cohorts (n = 44))?
**A.** 2 (5) n (%)

**Q.** And the “Headache TEAE, Grade 1” value (Combined q.d. cohorts (n = 44))?
**A.** 0 (0) n (%)

**Q.** What about the “Headache TEAE, Grade 2” value (Combined q.d. cohorts (n = 44)) of the same compound?
**A.** 1 (2) n (%)

**Q.** And the “Headache TEAE, Grade 3” value (Combined q.d. cohorts (n = 44))?
**A.** 1 (2) n (%)

**Q.** What about the “Headache TEAE, Grade 4” value (Combined q.d. cohorts (n = 44)) of the same compound?
**A.** 0 (0) n (%)

**Q.** What about the “Hypercalcemia TEAE, Any grade” value (Combined q.d. cohorts (n = 44)) of the same compound?
**A.** 0 (0) n (%)

**Q.** What about the “Hypercalcemia TEAE, Grade 1” value (Combined q.d. cohorts (n = 44)) of the same compound?
**A.** 0 (0) n (%)

**Q.** What about the “Hypercalcemia TEAE, Grade 2” value (Combined q.d. cohorts (n = 44)) of the same compound?
**A.** 0 (0) n (%)

**Q.** What about the “Hypercalcemia TEAE, Grade 3” value (Combined q.d. cohorts (n = 44)) of the same compound?
**A.** 0 (0) n (%)

**Q.** And the “Hypercalcemia TEAE, Grade 4” value (Combined q.d. cohorts (n = 44))?
**A.** 0 (0) n (%)

**Q.** What about the “Hyperphosphatemia TEAE, Any grade” value (Combined q.d. cohorts (n = 44)) of the same compound?
**A.** 30 (68) n (%)

**Q.** And the “Hyperphosphatemia TEAE, Grade 1” value (Combined q.d. cohorts (n = 44))?
**A.** 13 (30) n (%)

**Q.** And the “Hyperphosphatemia TEAE, Grade 2” value (Combined q.d. cohorts (n = 44))?
**A.** 10 (23) n (%)

**Q.** And the “Hyperphosphatemia TEAE, Grade 4” value (Combined q.d. cohorts (n = 44))?
**A.** 0 (0) n (%)

**Q.** And the “Hyperphosphatemia TEAE, grade 3” value (Combined q.d. cohorts (n = 44))?
**A.** 7 (16) n (%)

**Q.** And the “Hypomagnesemia TEAE, Any grade” value (Combined q.d. cohorts (n = 44))?
**A.** 3 (7) n (%)

**Q.** And the “Hypomagnesemia TEAE, Grade 1” value (Combined q.d. cohorts (n = 44))?
**A.** 3 (7) n (%)

**Q.** What about the “Hypomagnesemia TEAE, Grade 2” value (Combined q.d. cohorts (n = 44)) of the same compound?
**A.** 0 (0) n (%)

**Q.** What about the “Hypomagnesemia TEAE, Grade 3” value (Combined q.d. cohorts (n = 44)) of the same compound?
**A.** 0 (0) n (%)

**Q.** What about the “Hypomagnesemia TEAE, Grade 4” value (Combined q.d. cohorts (n = 44)) of the same compound?
**A.** 0 (0) n (%)

**Q.** What about the “Hyponatremia TEAE, Any grade” value (Combined q.d. cohorts (n = 44)) of the same compound?
**A.** 2 (5) n (%)

**Q.** What about the “Hyponatremia TEAE, Grade 1” value (Combined q.d. cohorts (n = 44)) of the same compound?
**A.** 0 (0) n (%)

**Q.** And the “Hyponatremia TEAE, Grade 2” value (Combined q.d. cohorts (n = 44))?
**A.** 0 (0) n (%)

**Q.** What about the “Hyponatremia TEAE, Grade 3” value (Combined q.d. cohorts (n = 44)) of the same compound?
**A.** 2 (5) n (%)

**Q.** What about the “Hyponatremia TEAE, Grade 4” value (Combined q.d. cohorts (n = 44)) of the same compound?
**A.** 0 (0) n (%)

**Q.** What about the “Nausea TEAE, Any grade” value (Combined q.d. cohorts (n = 44)) of the same compound?
**A.** 13 (30) n (%)

**Q.** What about the “Nausea TEAE, Grade 1” value (Combined q.d. cohorts (n = 44)) of the same compound?
**A.** 8 (18) n (%)

**Q.** And the “Nausea TEAE, Grade 2” value (Combined q.d. cohorts (n = 44))?
**A.** 3 (7) n (%)

**Q.** And the “Nausea TEAE, Grade 3” value (Combined q.d. cohorts (n = 44))?
**A.** 2 (5) n (%)

**Q.** And the “Nausea TEAE, Grade 4” value (Combined q.d. cohorts (n = 44))?
**A.** 0 (0) n (%)

**Q.** What about the “Onycholysis TEAE, Any grade” value (Combined q.d. cohorts (n = 44)) of the same compound?
**A.** 1 (2) n (%)

**Q.** And the “Onycholysis TEAE, Grade 1” value (Combined q.d. cohorts (n = 44))?
**A.** 1 (2) n (%)

**Q.** What about the “Onycholysis TEAE, Grade 2” value (Combined q.d. cohorts (n = 44)) of the same compound?
**A.** 0 (0) n (%)

**Q.** And the “Onycholysis TEAE, Grade 3” value (Combined q.d. cohorts (n = 44))?
**A.** 0 (0) n (%)

**Q.** And the “Onycholysis TEAE, Grade 4” value (Combined q.d. cohorts (n = 44))?
**A.** 0 (0) n (%)

**Q.** And the “Pyrexia TEAE, Any grade” value (Combined q.d. cohorts (n = 44))?
**A.** 5 (11) n (%)

**Q.** And the “Pyrexia TEAE, Grade 1” value (Combined q.d. cohorts (n = 44))?
**A.** 3 (7) n (%)

**Q.** And the “Pyrexia TEAE, Grade 2” value (Combined q.d. cohorts (n = 44))?
**A.** 1 (2) n (%)

**Q.** And the “Pyrexia TEAE, Grade 3” value (Combined q.d. cohorts (n = 44))?
**A.** 1 (2) n (%)

**Q.** And the “Pyrexia TEAE, Grade 4” value (Combined q.d. cohorts (n = 44))?
**A.** 0 (0) n (%)

**Q.** And the “Rash TEAE, Any grade” value (Combined q.d. cohorts (n = 44))?
**A.** 1 (2) n (%)

**Q.** What about the “Rash TEAE, Grade 1” value (Combined q.d. cohorts (n = 44)) of the same compound?
**A.** 1 (2) n (%)

**Q.** And the “Rash TEAE, Grade 2” value (Combined q.d. cohorts (n = 44))?
**A.** 0 (0) n (%)

**Q.** What about the “Rash TEAE, Grade 3” value (Combined q.d. cohorts (n = 44)) of the same compound?
**A.** 0 (0) n (%)

**Q.** What about the “Rash TEAE, Grade 4” value (Combined q.d. cohorts (n = 44)) of the same compound?
**A.** 0 (0) n (%)

**Q.** What about the “Stomatitis TEAE, Any grade” value (Combined q.d. cohorts (n = 44)) of the same compound?
**A.** 9 (20) n (%)

**Q.** What about the “Stomatitis TEAE, Grade 1” value (Combined q.d. cohorts (n = 44)) of the same compound?
**A.** 6 (14) n (%)

**Q.** What about the “Stomatitis TEAE, Grade 2” value (Combined q.d. cohorts (n = 44)) of the same compound?
**A.** 2 (5) n (%)

**Q.** What about the “Stomatitis TEAE, Grade 3” value (Combined q.d. cohorts (n = 44)) of the same compound?
**A.** 1 (2) n (%)

**Q.** What about the “Stomatitis TEAE, Grade 4” value (Combined q.d. cohorts (n = 44)) of the same compound?
**A.** 0 (0) n (%)

**Q.** And the “Treatment discontinuation because of TEAE, Any grade” value (Combined q.d. cohorts (n = 44))?
**A.** 2 (5) n (%)

**Q.** What about the “Treatment discontinuation because of TEAE, Grade 1” value (Combined q.d. cohorts (n = 44)) of the same compound?
**A.** 0 (0) n (%)

**Q.** And the “Treatment discontinuation because of TEAE, Grade 2” value (Combined q.d. cohorts (n = 44))?
**A.** 1 (2) n (%)

**Q.** What about the “Treatment discontinuation because of TEAE, Grade 3” value (Combined q.d. cohorts (n = 44)) of the same compound?
**A.** 1 (2) n (%)

**Q.** What about the “Treatment discontinuation because of TEAE, Grade 4” value (Combined q.d. cohorts (n = 44)) of the same compound?
**A.** 0 (0) n (%)

**Q.** And the “Urinary tract infection TEAE, Any grade” value (Combined q.d. cohorts (n = 44))?
**A.** 0 (0) n (%)

**Q.** And the “Urinary tract infection TEAE, Grade 1” value (Combined q.d. cohorts (n = 44))?
**A.** 0 (0) n (%)

**Q.** And the “Urinary tract infection TEAE, Grade 2” value (Combined q.d. cohorts (n = 44))?
**A.** 0 (0) n (%)

**Q.** And the “Urinary tract infection TEAE, Grade 3” value (Combined q.d. cohorts (n = 44))?
**A.** 0 (0) n (%)

**Q.** And the “Urinary tract infection TEAE, Grade 4” value (Combined q.d. cohorts (n = 44))?
**A.** 0 (0) n (%)

**Q.** What about the “Vomiting TEAE, Any grade” value (Combined q.d. cohorts (n = 44)) of the same compound?
**A.** 11 (25) n (%)

**Q.** What about the “Vomiting TEAE, Grade 1” value (Combined q.d. cohorts (n = 44)) of the same compound?
**A.** 6 (14) n (%)

**Q.** What about the “Vomiting TEAE, Grade 2” value (Combined q.d. cohorts (n = 44)) of the same compound?
**A.** 3 (7) n (%)

**Q.** And the “Vomiting TEAE, Grade 3” value (Combined q.d. cohorts (n = 44))?
**A.** 2 (5) n (%)

**Q.** And the “Vomiting TEAE, Grade 4” value (Combined q.d. cohorts (n = 44))?
**A.** 0 (0) n (%)

**Q.** And the “ALT increased TEAE, Any grade” value [1]?
**A.** 5 (12) n (%)

**Q.** And the “ALT increased TEAE, Grade 1” value [1]?
**A.** 3 (7) n (%)

**Q.** And the “ALT increased TEAE, Grade 2” value [1]?
**A.** 1 (2) n (%)

**Q.** What about the “ALT increased TEAE, Grade 3” value [1] of the same compound?
**A.** 1 (2) n (%)

**Q.** What about the “ALT increased TEAE, Grade 4” value [1] of the same compound?
**A.** 0 (0) n (%)

**Q.** And the “AST increased TEAE, Any grade” value [1]?
**A.** 4 (10) n (%)
